Reference: the NIST ThermoML archive (doi:10.1016/j.jct.2016.10.023)

Assay: xn = mol fraction of the nth substance listed
Settings: Constant-volume piezometry

CCCCC [pentane] + CCCO
Settings	mass density [kg/m3]
543.15 K, 9051 kPa, Fluid (supercritical or subcritical phases), x1 = 0.2	378.24
543.15 K, 9246 kPa, Fluid (supercritical or subcritical phases), x1 = 0.8	288.09
543.15 K, 9255 kPa, Fluid (supercritical or subcritical phases), x1 = 0.2	383.04
543.15 K, 9409 kPa, Fluid (supercritical or subcritical phases), x1 = 0.9	301.38
543.15 K, 9589 kPa, Fluid (supercritical or subcritical phases), x1 = 0.2	390.87
543.15 K, 9630 kPa, Fluid (supercritical or subcritical phases), x1 = 0.8	298.89
543.15 K, 9923 kPa, Fluid (supercritical or subcritical phases), x1 = 0.9	312.01
543.15 K, 10354 kPa, Fluid (supercritical or subcritical phases), x1 = 0.8	315.05
543.15 K, 11098 kPa, Fluid (supercritical or subcritical phases), x1 = 0.9	333.7
543.15 K, 11177 kPa, Fluid (supercritical or subcritical phases), x1 = 0.2	418.27
543.15 K, 11295 kPa, Fluid (supercritical or subcritical phases), x1 = 0.8	333.52
543.15 K, 11953 kPa, Fluid (supercritical or subcritical phases), x1 = 0.8	345.03
543.15 K, 12737 kPa, Fluid (supercritical or subcritical phases), x1 = 0.9	353.77
543.15 K, 13394 kPa, Fluid (supercritical or subcritical phases), x1 = 0.8	361.57
543.15 K, 15943 kPa, Fluid (supercritical or subcritical phases), x1 = 0.2	469.86
543.15 K, 19097 kPa, Fluid (supercritical or subcritical phases), x1 = 0.9	406.88
543.15 K, 19983 kPa, Fluid (supercritical or subcritical phases), x1 = 0.8	417.78
543.15 K, 22804 kPa, Fluid (supercritical or subcritical phases), x1 = 0.2	509.01
543.15 K, 31784 kPa, Fluid (supercritical or subcritical phases), x1 = 0.8	466.21
543.15 K, 33595 kPa, Fluid (supercritical or subcritical phases), x1 = 0.2	546.39
543.15 K, 42744 kPa, Fluid (supercritical or subcritical phases), x1 = 0.8	495.57
543.15 K, 49093 kPa, Fluid (supercritical or subcritical phases), x1 = 0.2	580.61
553.15 K, 1401 kPa, Gas, x1 = 0.8	22.49
553.15 K, 1675 kPa, Gas, x1 = 0.2	24.89
553.15 K, 2144 kPa, Gas, x1 = 0.8	36.64
553.15 K, 3159 kPa, Gas, x1 = 0.8	58.33
553.15 K, 3511 kPa, Gas, x1 = 0.2	52.93
553.15 K, 3789 kPa, Gas, x1 = 0.8	73.69
553.15 K, 4048 kPa, Fluid (supercritical or subcritical phases), x1 = 0.9	83.26
553.15 K, 4680 kPa, Gas, x1 = 0.2	91.28
553.15 K, 4938 kPa, Fluid (supercritical or subcritical phases), x1 = 0.8	106.25
553.15 K, 5296 kPa, Fluid (supercritical or subcritical phases), x1 = 0.9	123.17
553.15 K, 5319 kPa, Fluid (supercritical or subcritical phases), x1 = 0.2	114.19
553.15 K, 5611 kPa, Fluid (supercritical or subcritical phases), x1 = 0.9	133.93
553.15 K, 6054 kPa, Fluid (supercritical or subcritical phases), x1 = 0.8	140.1
553.15 K, 6100 kPa, Fluid (supercritical or subcritical phases), x1 = 0.2	150.13
553.15 K, 6344 kPa, Fluid (supercritical or subcritical phases), x1 = 0.9	163.72
553.15 K, 6388 kPa, Fluid (supercritical or subcritical phases), x1 = 0.8	155.82
553.15 K, 6521 kPa, Fluid (supercritical or subcritical phases), x1 = 0.2	175.35
553.15 K, 6714 kPa, Fluid (supercritical or subcritical phases), x1 = 0.2	189.36
553.15 K, 6741 kPa, Fluid (supercritical or subcritical phases), x1 = 0.8	169.54
553.15 K, 6874 kPa, Fluid (supercritical or subcritical phases), x1 = 0.8	175.77
553.15 K, 6982 kPa, Fluid (supercritical or subcritical phases), x1 = 0.9	189.18
553.15 K, 6985 kPa, Fluid (supercritical or subcritical phases), x1 = 0.8	180.56
553.15 K, 7102 kPa, Fluid (supercritical or subcritical phases), x1 = 0.2	219.77
553.15 K, 7277 kPa, Fluid (supercritical or subcritical phases), x1 = 0.9	202.08
553.15 K, 7296 kPa, Fluid (supercritical or subcritical phases), x1 = 0.8	192.88
553.15 K, 7439 kPa, Fluid (supercritical or subcritical phases), x1 = 0.2	245.11
553.15 K, 7620 kPa, Fluid (supercritical or subcritical phases), x1 = 0.2	258.81
553.15 K, 7669 kPa, Fluid (supercritical or subcritical phases), x1 = 0.2	262.51
553.15 K, 7760 kPa, Fluid (supercritical or subcritical phases), x1 = 0.9	220.36
553.15 K, 7786 kPa, Fluid (supercritical or subcritical phases), x1 = 0.8	213.54
553.15 K, 7792 kPa, Fluid (supercritical or subcritical phases), x1 = 0.2	271.95
553.15 K, 7945 kPa, Fluid (supercritical or subcritical phases), x1 = 0.8	219.29
553.15 K, 8057 kPa, Fluid (supercritical or subcritical phases), x1 = 0.2	290.1
553.15 K, 8082 kPa, Fluid (supercritical or subcritical phases), x1 = 0.9	232.72
553.15 K, 8169 kPa, Fluid (supercritical or subcritical phases), x1 = 0.9	236.18
553.15 K, 8267 kPa, Fluid (supercritical or subcritical phases), x1 = 0.9	240.57
553.15 K, 8315 kPa, Fluid (supercritical or subcritical phases), x1 = 0.8	234.36
553.15 K, 8323 kPa, Fluid (supercritical or subcritical phases), x1 = 0.2	306.36
553.15 K, 8361 kPa, Fluid (supercritical or subcritical phases), x1 = 0.9	243.88
553.15 K, 8384 kPa, Fluid (supercritical or subcritical phases), x1 = 0.2	310.58
553.15 K, 8538 kPa, Fluid (supercritical or subcritical phases), x1 = 0.2	318.29
553.15 K, 8586 kPa, Fluid (supercritical or subcritical phases), x1 = 0.8	244.98
553.15 K, 8982 kPa, Fluid (supercritical or subcritical phases), x1 = 0.8	258.18
553.15 K, 9164 kPa, Fluid (supercritical or subcritical phases), x1 = 0.2	340.74
553.15 K, 9236 kPa, Fluid (supercritical or subcritical phases), x1 = 0.2	343.52
553.15 K, 9433 kPa, Fluid (supercritical or subcritical phases), x1 = 0.8	272.13
553.15 K, 9589 kPa, Fluid (supercritical or subcritical phases), x1 = 0.9	281.59
553.15 K, 10042 kPa, Fluid (supercritical or subcritical phases), x1 = 0.8	287.95
553.15 K, 10274 kPa, Fluid (supercritical or subcritical phases), x1 = 0.9	301.23
553.15 K, 10469 kPa, Fluid (supercritical or subcritical phases), x1 = 0.8	298.75
553.15 K, 10491 kPa, Fluid (supercritical or subcritical phases), x1 = 0.2	378.05
553.15 K, 10735 kPa, Fluid (supercritical or subcritical phases), x1 = 0.2	382.84
